What was measured:
Melanocortin receptor 4 [1] = target: T1, Melanocortin receptor 4 (Homo sapiens, UniProt P32245); test: Inhibitory activity against [125I]NDP-alpha-MSH binding to the human melanocortin 4 receptor
Melanocortin receptor 4 [2] = target: T1, Melanocortin receptor 4; test: Intracellular level of cAMP in cells expressing the melanocortin 4 receptor; format: functional
Melanocortin receptor 4 [3] = target: T1, Melanocortin receptor 4; test: Percentage of maximal response with respect to alpha-MSH in cells expressing the melanocortin 4 receptor; format: functional
Melanocortin receptor 3 = Melanocortin receptor 3 (Homo sapiens, UniProt P41968); test: Inhibitory activity against human melanocortin 3 receptor
[4] = target: Melanocyte-stimulating hormone receptor (Mus musculus, UniProt Q01727); test: Inhibitory activity against mouse melanocortin 1 receptor
Chain of Melanocyte-stimulating hormone receptor (Q01727 whole entry): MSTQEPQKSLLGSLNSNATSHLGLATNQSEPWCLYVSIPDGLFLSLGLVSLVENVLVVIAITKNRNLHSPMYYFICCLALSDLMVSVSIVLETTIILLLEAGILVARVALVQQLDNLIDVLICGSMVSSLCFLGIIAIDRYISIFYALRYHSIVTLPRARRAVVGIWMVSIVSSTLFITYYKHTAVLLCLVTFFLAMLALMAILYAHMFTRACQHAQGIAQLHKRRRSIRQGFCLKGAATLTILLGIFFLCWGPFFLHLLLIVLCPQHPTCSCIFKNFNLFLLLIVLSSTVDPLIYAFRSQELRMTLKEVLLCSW

T1 sequence (P32245 whole entry): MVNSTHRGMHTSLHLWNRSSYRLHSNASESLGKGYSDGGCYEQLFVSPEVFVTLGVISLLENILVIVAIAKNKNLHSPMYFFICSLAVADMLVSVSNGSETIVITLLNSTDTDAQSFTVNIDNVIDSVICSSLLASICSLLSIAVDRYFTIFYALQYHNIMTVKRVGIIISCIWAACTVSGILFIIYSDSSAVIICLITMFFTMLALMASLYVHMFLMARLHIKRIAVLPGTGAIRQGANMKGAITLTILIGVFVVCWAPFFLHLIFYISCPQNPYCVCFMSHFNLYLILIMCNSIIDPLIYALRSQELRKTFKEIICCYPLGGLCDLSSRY
Chain of Melanocortin receptor 3 (P41968 whole entry): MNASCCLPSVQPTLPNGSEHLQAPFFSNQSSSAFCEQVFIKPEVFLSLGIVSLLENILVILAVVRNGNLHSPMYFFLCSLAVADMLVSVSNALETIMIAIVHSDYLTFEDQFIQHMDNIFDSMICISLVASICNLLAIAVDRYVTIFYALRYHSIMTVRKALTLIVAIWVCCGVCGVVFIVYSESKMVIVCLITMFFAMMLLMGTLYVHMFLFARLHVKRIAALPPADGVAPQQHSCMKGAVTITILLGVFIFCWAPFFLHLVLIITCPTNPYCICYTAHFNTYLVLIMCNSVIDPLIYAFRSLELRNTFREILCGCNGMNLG

| Compound | IC50 (Melanocortin receptor 4 [1]) [nM] | EC50 (Melanocortin receptor 4 [2]) [nM] | Activation (Melanocortin receptor 4 [3]) [%] | IC50 (Melanocortin receptor 3) [nM] | IC50 [4] [nM] |
| --- | --- | --- | --- | --- | --- |
| CC(C)(C)OC(=O)N1CCN(C(=O)C[C@H](Cc2ccc(Cl)cc2)C(=O)N2CCN(c3ccccc3N(CC3CC3)S(C)(=O)=O)CC2)CC1 | 3.3 | > 10000 | 0 | > 3500 | > 10000 |
| CCN(C(C)=O)C(C)c1ccccc1N1CCN(C(=O)[C@H](CC(=O)N2CCN(C(=O)OC(C)(C)C)CC2)Cc2ccc(Cl)cc2)CC1 (some centres undefined) | 2 | > 10000 | 0 |  |  |
| CC(C)(C)CC(=O)N1CCN(C(=O)C[C@H](Cc2ccc(Cl)cc2)C(=O)N2CCN(c3ccccc3N(CC3CC3)S(C)(=O)=O)CC2)CC1 | < 0.1 | 74 | 45 | > 10000 | > 1800 |
| CCOC(=O)N1CCN(C(=O)C[C@H](Cc2ccc(Cl)cc2)C(=O)N2CCN(c3ccccc3N(CC3CC3)S(C)(=O)=O)CC2)CC1 | 1.4 | > 10000 | 0 | > 10000 | > 10000 |
| CC(C)CCN1CCN(C(=O)C[C@H](Cc2ccc(Cl)cc2)C(=O)N2CCN(c3ccccc3N(CC3CC3)S(C)(=O)=O)CC2)CC1 | 4.8 | > 10000 | 0 |  |  |
| CCN(C(C)=O)C(C)c1ccccc1N1CCN(C(=O)[C@H](CC(=O)N2CCSC2)Cc2ccc(Cl)cc2)CC1 (some centres undefined) | 9.4 | 530 | 80 |  |  |
| CCCN1CCN(C(=O)C[C@H](Cc2ccc(Cl)cc2)C(=O)N2CCN(c3ccccc3N(CC3CC3)S(C)(=O)=O)CC2)CC1 | 8.9 | > 10000 | 0 | > 10000 | > 10000 |
| CC(=O)N1CCN(C(=O)C[C@H](Cc2ccc(Cl)cc2)C(=O)N2CCN(c3ccccc3N(CC3CC3)S(C)(=O)=O)CC2)CC1 | 11 | > 10000 | 0 | > 10000 | > 10000 |
| CCN1CCN(C(=O)C[C@H](Cc2ccc(Cl)cc2)C(=O)N2CCN(c3ccccc3N(CC3CC3)S(C)(=O)=O)CC2)CC1 | 9.5 | > 10000 | 0 |  |  |
| CS(=O)(=O)N(CC1CC1)c1ccccc1N1CCN(C(=O)[C@H](CC(=O)N2CCN(CC3CC3)CC2)Cc2ccc(Cl)cc2)CC1 | 3 | > 10000 | 0 |  |  |

Continued, values first:

| IC50 (Melanocortin receptor 4 [1]) [nM] | EC50 (Melanocortin receptor 4 [2]) [nM] | Activation (Melanocortin receptor 4 [3]) [%] | IC50 (Melanocortin receptor 3) [nM] | IC50 [4] [nM] | Compound |
| --- | --- | --- | --- | --- | --- |
| 32 | 37 | 95 |  |  | CCN(C(C)=O)C(C)c1ccccc1N1CCN(C(=O)[C@H](CC(=O)NCc2ccccn2)Cc2ccc(Cl)cc2)CC1 (some centres undefined) |
| 19 | 340 | 90 | > 10000 | > 1400 | CCN(C(C)=O)C(C)c1ccccc1N1CCN(C(=O)[C@H](CC(=O)N2CCC2)Cc2ccc(Cl)cc2)CC1 (some centres undefined) |
| 4.4 | 83 | 55 |  |  | CS(=O)(=O)N(CC1CC1)c1ccccc1N1CCN(C(=O)[C@H](CC(=O)N2CCN(C(=O)c3ccccc3)CC2)Cc2ccc(Cl)cc2)CC1 |
| 130 | < 0.1 | > 90 |  |  | CS(=O)(=O)N(CC1CC1)c1ccccc1N1CCN(C(=O)[C@@H](Cc2ccc(Cl)cc2)NC(=O)C2CCNCC2)CC1 |
| 220 | 2000 | 70 | > 8000 | > 8000 | CS(=O)(=O)N(CC1CC1)c1ccccc1N1CCN(C(=O)[C@H](CC(=O)N2CCNCC2)Cc2ccc(Cl)cc2)CC1 |
| 66 | 5.2 | 100 | 2900 | 153 | CS(=O)(=O)N1CC2(CCN(C(=O)[C@@H](Cc3ccc(Cl)cc3)NC(=O)[C@H]3Cc4ccccc4CN3)CC2)c2ccccc21 |
| 5.8 | 15 | 100 | > 10000 | > 600 | CCN(C(C)=O)C(C)c1ccccc1N1CCN(C(=O)[C@H](CC(=O)NC2CCC2)Cc2ccc(Cl)cc2)CC1 (some centres undefined) |
| 13 | 89 | 100 | > 10000 | > 1600 | CCN(C(C)=O)C(C)c1ccccc1N1CCN(C(=O)[C@H](CC(=O)NCc2ccccc2F)Cc2ccc(Cl)cc2)CC1 (some centres undefined) |
